Measurements: patent US11865125B2, “APKC inhibitors and methods of treating a neurodegenerative disease or disorder” (UNIVERSITY OF SOUTH FLORIDA, priority 2016, dated 2024)
pIC50: −log10 of the molar value.

How the values were obtained:
[1] = tested on: Akt substrates, GSK3β and mTOR; assay: phosphorylation of Akt substrates in LA1-5s neuroblastoma cells; assay type: cell-based, human; details: LA1-5s cells, 200 nM insulin, data not shown
Experimental: Relative bar values in panel a are mean±SEM of 6 determinations. Asterisks: *, P<0.05; **, P<0.01; ***, P<0.001 (ANOVA). Values in panel b are means of 2-4 determinations.
Western Analyses. As described, Western analyses were conducted with rabbit antisera or mouse monoclonal antibodies (mMab), using: anti-aPKC (Santa Cruz Biotechnologies, Santa Cruz, CA); anti-phospho-threonine-560/555-PKC-ζ/λ/ι (Invitrogen, Carlsbad, CA); anti-p-serine-256-FoxO1 and anti-FoxO1 (Abnova, Walnut, CA); anti-Akt (mMab), anti-phospho-serine-473-Akt, anti-phospho-serine-9-GSK3P anti-GSK313, anti-phospho-serine-253-FoxO3a, anti-FoxO3a, anti-phospho-serine-256-FoxO1, anti-phospho-serine-193-FoxO4; anti-FoxO1, anti-phospho-serine-2448-mTOR, anti-mTOR, anti-β-amyloid (anti-5-10 kDa-Aβ1-40/42) and anti-amyloid precursor protein (anti-120 kDa-APP) (Cell Signaling Technologies, Danvers, MA); and anti-phospho-serine-202-tau, anti-phospho-threonine-231-tau (Gene Tex, Irvine, CA). Samples from experimental groups were compared on the same blots, and routinely checked with loading controls. Note that: insulin-sensitive 70 kDa aPKC is largely PKC-ζ in mouse brain and orthologous PKC-ι (98% aa homology) in monkey and other primate brains; brain PKC-ζ exists largely as a 50 kDa moiety that, lacking a regulatory domain, is constitutively-active and unresponsive to insulin.

aPKC = molecular target: T1, aPKC (Homo sapiens, UniProt P41743); set-up: endogenous in cells; details: previously seen, stated as similar; read-out: IC50, inhibition of aPKC activity in isolated human hepatocytes; cited from earlier work
T1 sequence (P41743 2-596): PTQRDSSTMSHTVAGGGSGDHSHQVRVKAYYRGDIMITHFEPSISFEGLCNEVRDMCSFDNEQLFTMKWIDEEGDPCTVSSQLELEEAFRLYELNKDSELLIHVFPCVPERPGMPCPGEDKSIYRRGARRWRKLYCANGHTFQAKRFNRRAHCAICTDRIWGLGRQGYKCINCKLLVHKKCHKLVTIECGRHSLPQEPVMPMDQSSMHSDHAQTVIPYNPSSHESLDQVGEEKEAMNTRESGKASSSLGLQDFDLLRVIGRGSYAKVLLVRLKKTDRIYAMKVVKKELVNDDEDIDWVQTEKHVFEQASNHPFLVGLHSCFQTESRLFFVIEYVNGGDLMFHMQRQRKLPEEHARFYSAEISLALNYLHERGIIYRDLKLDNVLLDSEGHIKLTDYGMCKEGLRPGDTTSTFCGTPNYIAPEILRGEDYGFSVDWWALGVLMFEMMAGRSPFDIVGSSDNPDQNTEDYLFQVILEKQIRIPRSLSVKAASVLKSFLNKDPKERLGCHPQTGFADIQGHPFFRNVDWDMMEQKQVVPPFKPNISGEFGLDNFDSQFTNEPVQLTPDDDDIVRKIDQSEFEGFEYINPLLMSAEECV

NC(=O)c1ncn([C@@H]2C[C@H](COP(=O)(O)O)[C@@H](O)[C@H]2O)c1N [ICAPP]
effect on insulin-stimulated phosphorylation of Akt substrates [1]: without altering | pIC50 (aPKC): 8.00 to 9.00
